Laboratory results reported in publication PMC10214751, “Poaceae‐specific β‐1,3;1,4‐D‐glucans link jasmonate signalling to OsLecRK1‐mediated defence response during rice‐brown planthopper interactions” (Plant Biotechnology Journal, 2023).

Target: T1, OsLecRK1 (MBP-OsLecRK1-His) (Oryza sativa, UniProt Q7FAZ3)
T1 construct: gene LECRK1; recombinant MBP-OsLecRK1-His fusion, purified; MBP and His tags kept; RED-NHS labelled
T1 sequence (Q7FAZ3 20-813 limits assumed): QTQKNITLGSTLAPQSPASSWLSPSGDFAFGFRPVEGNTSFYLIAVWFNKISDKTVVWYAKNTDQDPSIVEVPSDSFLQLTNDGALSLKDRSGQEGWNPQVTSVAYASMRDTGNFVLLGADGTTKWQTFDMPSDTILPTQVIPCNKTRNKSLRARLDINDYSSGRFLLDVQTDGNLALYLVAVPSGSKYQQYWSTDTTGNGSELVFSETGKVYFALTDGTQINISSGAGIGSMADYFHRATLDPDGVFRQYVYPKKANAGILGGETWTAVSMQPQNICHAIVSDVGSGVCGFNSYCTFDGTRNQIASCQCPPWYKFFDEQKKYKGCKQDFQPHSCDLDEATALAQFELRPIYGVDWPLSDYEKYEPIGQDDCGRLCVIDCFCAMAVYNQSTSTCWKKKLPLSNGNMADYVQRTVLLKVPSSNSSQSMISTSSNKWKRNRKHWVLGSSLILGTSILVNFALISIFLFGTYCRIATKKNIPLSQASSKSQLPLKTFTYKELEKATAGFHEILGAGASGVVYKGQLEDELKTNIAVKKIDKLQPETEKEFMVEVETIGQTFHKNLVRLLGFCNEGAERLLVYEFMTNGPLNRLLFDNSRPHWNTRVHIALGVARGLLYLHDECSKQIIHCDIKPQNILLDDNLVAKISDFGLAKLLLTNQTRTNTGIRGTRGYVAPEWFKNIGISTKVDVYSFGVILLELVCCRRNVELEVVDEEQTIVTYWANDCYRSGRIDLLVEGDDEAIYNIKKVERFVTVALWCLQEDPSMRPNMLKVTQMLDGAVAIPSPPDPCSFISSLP
Experiment: microscale thermophoresis, RED-NHS labelled protein
Assay type: binding
Details: labelled protein in NHS buffer pH 8.2 (130 mM NaHCO3, 50 mM NaCl); ligand 1.5 nM to 50 μM
Description: microscale thermophoresis, RED-NHS labelled protein on OsLecRK1 (MBP-OsLecRK1-His) | MBP‐OsLecRK1‐His recombinant protein bound BGTRIA, BGTRIB, BGTETB, and BGTETC with high affinities

Row | SMILES | Kd [nM]
1 | OC[C@H]1O[C@@H](O[C@H]2[C@H](O)[C@@H](O)[C@H](O[C@H]3[C@H](O)[C@@H](CO)OC(O)[C@@H]3O)O[C@@H]2CO)[C@H](O)[C@@H](O)[C@@H]1O (stereo partly drawn) [BGTRIB, 3^1‐β‐D‐cellobiosyl‐glucose] | 600
2 | OC[C@H]1O[C@@H](O[C@@H]2[C@@H](O)[C@H](O[C@H]3[C@H](O)[C@@H](O)C(O)O[C@@H]3CO)O[C@H](CO)[C@H]2O)[C@H](O)[C@@H](O)[C@@H]1O (stereo partly drawn) [BGTRIA, 3^2‐β‐D‐glucosyl‐cellobiose] | 340
